Experiments:
[1] = tested on: mouse CFA model of inflammation; assay: In vivo assay 2: CFA pain model, dynamic weight-bearing (DWB); details: DWB 24 h after CFA
Description: In Vivo Assay 2: Effects of Example 3-2 in the CFA Pain Model
The efficacy of Example 3-2 in vivo on inflammatory pain was measured in inflamed paws after administration of complete Freund's adjuvant (CFA) (24 h) in the dynamic weight-bearing (DWB) model. The effects of repeated preventive treatment with Example 3-2 on pain following repeated oral administration (3×) in the mouse CFA model of inflammation were investigated using a preventive setting. The GPR84 antagonist Example 3-2 (20 or 60 mg/kg, 3× doses) was administered 2 h before injection of CFA and 6-8 h later at day 0. At 24 h after CFA application, the third dose of Example 3-2 was given 2 h before DWB testing. Statistical analysis was performed with one-way analysis of variance, followed by Bonferroni's multiple comparison test against vehicle control groups using the GraphPad PRISM software, *p<0.05.

[2] = molecular target: T1, human GPR84 receptor (Homo sapiens, UniProt Q9NQS5); assay: cAMP HTRF assay for identification of cellular GPR84 antagonists; assay type: cell-based; details: CHO-K1 cells stably expressing human GPR84; Forskolin + agonist 6-OAU (EC80); average or median values
T1 construct: frozen aliquots prepared by acCELLerate; host or cells: CHO-K1
T1 sequence (Q9NQS5 whole entry): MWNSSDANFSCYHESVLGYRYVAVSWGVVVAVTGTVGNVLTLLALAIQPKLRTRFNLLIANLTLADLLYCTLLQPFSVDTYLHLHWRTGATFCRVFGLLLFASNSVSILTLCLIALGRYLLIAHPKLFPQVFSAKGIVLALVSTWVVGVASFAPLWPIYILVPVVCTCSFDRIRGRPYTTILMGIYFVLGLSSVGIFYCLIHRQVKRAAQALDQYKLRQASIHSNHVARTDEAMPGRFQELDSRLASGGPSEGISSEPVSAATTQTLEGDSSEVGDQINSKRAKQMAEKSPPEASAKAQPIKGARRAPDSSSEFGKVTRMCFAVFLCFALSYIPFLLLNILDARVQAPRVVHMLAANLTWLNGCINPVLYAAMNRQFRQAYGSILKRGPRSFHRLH
Method in brief: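 Forskolin-stimulated CHO-K1 cells stably expressing human GPR84, agonist-suppressed cAMP measured by HTRF (665/620 ratio) after lysis. Compounds at 11 concentrations, 20 μM to 0.07 nM, duplicate; normalized to DMSO and no-agonist controls; IC50 by 4-parameter fit.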

[3] = tested on: rat DHT-PCOS model; assay: In vivo assay 1: DHT driven rat PCOS model; design: species or system Han-Wistar rats; details: 26 days of drug administration
Description: In Vivo Assay 1: GPR84 Ligand and Antagonist Characterization in PCOS Model
The efficacy of Example 3-2 in vivo on the treatment of POCS was measured in the DHT driven rat PCOS model. At 3 weeks of age, Han-Wistar rats were randomly divided into three experimental groups [control (n=10), DHT (n=10), and DHT plus Example 3-2 (n=10)] and implanted s.c. with 60-d continuous-DHT-release pellets (80 μg/d, Bayer AG, Germany). The dose of DHT was chosen to mimic the hyperandrogenic state in women with PCOS. Controls received identical pellets lacking the bioactive DHT molecule. Animal received a standard chow, only for the last week standard show was replaced by a high fat diet. Rats were weighted bi-weekly from 21 d of age. The study was concluded after 26 days of drug administration. […] Statistical analysis was performed with one-way analysis of variance, followed by Bonferroni's multiple comparison test against vehicle control groups using the GraphPad PRISM software, *p<0.05.

| SMILES | Weight distribution (% weight on injected paw) mean +/- SD ([1]; 3x 20 mg p.o., vehicle 43 +/- 20, not significant vs. vehicle group) | Weight distribution (% weight on injected paw) mean +/- SD ([1]; 3x 60 mg p.o., vehicle 43 +/- 20, significant vs. vehicle group) | IC50 [2] | weight gain ([3]; DHT driven rat PCOS model) | Relative weight vs. Vehicle control ([3]; rat DHT-PCOS model, p.o. 60 mg/kg morning dose + s.c. 60 mg/kg evening dose, DHT-Vehicle group 111%) |
| --- | --- | --- | --- | --- | --- |
| Cc1c(C(=O)NC[C@@H]2CCCO2)oc2c1-c1nn(Cc3ccccn3)cc1CC2 [Example 3-2, 8-methyl-2-(pyridin-2-ylmethyl)-N-[(2S)-tetrahydrofuran-2-ylmethyl]-4,5-dihydro-2H-furo[2,3-g]indazole-7-carboxamide] | 60 +/− 21 (not significant vs. vehicle group) % | 83 +/− 18 (significant vs. vehicle group) % | 110 nM | gained less weight compared to the untreated control | 103% * (significant vs. |
| O=C(NCc1cnc(C2CC2)cn1)c1oc2c(c1C(F)(F)F)-c1nn(C[C@H]3COCCO3)cc1CC2 [Example 321, N-[(5-cyclopropylpyrazin-2-yl)methyl]-2-{[(2S)-1,4-dioxan-2-yl]methyl}-8-(trifluoromethyl)-4,5-dihydro-2H-furo[2,3-g]indazole-7-carboxamide] |  |  | 3 nM |  |  |

Reference: patent US12570666B2, “Furoindazole derivatives” (Bayer Aktiengesellschaft, priority 2019, dated 2026)
